Results published in US5371186A, “Synthetic peptides for detoxification of bacterial endotoxins and for the prevention and treatment of septic shock” (priority 1992, dated 1994).

Columns and labels:
[1] = highest dose tolerated in the mouse when injected alone; format: in vivo; conditions: intravenously
[2] = tested on: spleen cells from unimmunized healthy SJL/J mice; assay: LPS-induced polyclonal B-cell activation, 3H-thymidine incorporation; format: cell-based; conditions: LPS 50 μg/ml, LPS alone 22,737, non stimulated 2,449 cpm
Procedure: Cells were cultured in RPMI medium containing 1.0% normal mouse serum at 37° C. for 3 days. Cultures were pulsed with 1.0 μi/well of 3H-thymidine for 16 hours and harvested for counting on an LS betaplate counter. The results were as follows:
cpm measured with non stimulated cultures = 2,449.

[3] = stoichiometry of the complexes with LPS by amino acid analysis; format: binding; conditions: 10 μg B. Pertussis LPS (2.64 nmoles Lipid A) + 10 μg peptide
Procedure: Quantitation of the amount of precipitated peptides present in the complexes with PLS of B. pertussis has been done by amino acid analysis after acid hydrolysis (by 6 M HCl) of the complexes recovered by centrifugation at 3,000 rpm×15 minutes. In Table III, the stoichiometry of some complexes is reported as calculated by the ratio (on molar basis) between the amount of each peptide and the amount of Lipid A present in the structure of LPS used in the experiments:
*Complexes formed between 10 μg of B. Pertussis LPS (equivalent to 4.5
μg of Lipid A of 2.64 nmoles) and 10 μg of peptide (twice the amoun
corresponding to the saturation point found for Polymyxin "B" in the
**Values represent the average of two separate experiments of amino acid
analysis after acid hydrolysis of the recovered complexes.

[4] = tested on: Vibrio cholerae; assay: antibiotic activity, zone of inhibition on BHI plates; format: cell-based, V. choleras; conditions: 18 hours
Procedure: The following experiments compared the antibiotic activity of Polymyxin "B" with various peptides of the invention.
The tests were performed on BHI plates with liquid cultures of the test organism to give a lawn. Each peptide was diluted in water and placed on sterile Wathmam 3M disks on the surface of the plate. The plates were dried and incubated at 37° C. The zone of inhibition was measured after 18 hours: […]

[5] = Rabbit pyrogen test of peptide/LPS complexes; format: in vivo; conditions: rabbits, complex with LPS injected, three hours observation
Source text: As a consequence of this high-affinity binding to the Lipid A moiety of endotoxins, most of the synthetic peptide analogs have shown the ability to detoxify endotoxins as evidenced by in vitro as well as in vivo analysis. The in vitro test used, as measure of detoxification, the inhibition of the enzymatic cascade leading to the coagulation of the Lymulus lysate (LAL test) by endotoxin. The LAL test is recognized as the most sensitive and predictive test for the toxic and pyrogenic activity of LPS, since pyrogenicity in vivo is related to the release of the endogenous immune modulators Interleukin-1 (IL-l) and alfa-Tumor necrosis factor (α-TNF), the mediators responsible for the fatalities associated to septic shock. As an in vivo test confirming detoxification of LPS, was then used the Rabbit pyrogen test performed according to the United States Pharmacopeia XXI.
In order to verify "in vivo" the detoxifying activity of the peptides, we have injected five groups of three rabbits each with the complexes formed by two representative synthetic peptide analogs with LPS. The pyrogenicity test has been executed according to the United States Pharmacopeia (Vol. XXI)/The National formulary (Vol. XVI), Combined Edition, Jan. 1, 1985. As a negative control in the test, the complex formed by Polymyxin "B" and LPS was injected. As a positive control free LPS was injected. […]

Substance: Polymyxin "B"
- highest dose tolerated in the mouse [1]: 0.1 mg/mouse
- 3H-thymidine incorporation ([2]; 12.5 μg/ml): 2,366 cpm
- 3H-thymidine incorporation ([2]; 25 μg/ml): 3,559 cpm
- 3H-thymidine incorporation ([2]; 50 μg/ml): 2,831 cpm
- 3H-thymidine incorporation ([2]; 100 μg/ml): 4,128 cpm
- Ratio peptide/LipA [3]: 1.02 mol/mol
- Amount of peptide in the complex ([3]; average of two experiments): 2.69 nmol
- Zone (mm) of inhibition V. choleras ([4]; 0.008 μg/ml): 1 mm
- Zone (mm) of inhibition V. choleras ([4]; 0.04 μg/ml): 2 mm
- Zone (mm) of inhibition V. choleras ([4]; 0.2 μg/ml): 2.5 mm
- Zone (mm) of inhibition V. choleras ([4]; 1.0 μg/ml): 5 mm
- pyrogenicity (temperature increase) of complex with LPS [5]: did not show either of the two waves of temperature increase
